From patent US8535931B2, “Non-photosynthetic micro-organisms enriched with organic selenium from seleno-hydroxyacid compounds and applications thereof in the field of nutrition, cosmetics and pharmacueuticals” (priority 2008, dated 2013)
Where two headings read alike, the source gives them in different places.

What was measured:
[1] = supplementation of the diet; cited from earlier work
[2] = system: Saccharomyces cerevisiae 3053-E000; assay type: cell-based; conditions: for yield of biomass obtained (change): 48 h; for concentration from which an effect on growth / biomass yield begins to show: YPG medium, pH 4, 37° C.
Protocol: In the experiments described, the growth characteristics of the yeast Saccharomyces cerevisiae 3053 E000 were measured in the presence of different concentrations of selenium in the form of sodium selenite, selenomethionine, or 2-hydroxy-4-methylseleno-butanoic acid and compared to the growth characteristics in the absence of additives (control). The pre-culture of the strain Saccharomyces cerevisiae 3053-E000 is carried out in liquid YPG medium, at 37° C., under orbital agitation (250 rpm) for 24 h.
The culture is formed from an inoculum (1.10^6 UFC/ml) of the pre-culture described previously in 100 mL of YPG medium, at pH=4 at a temperature of 37° C. under agitation (250 rpm) and according to the following conditions:
The cultures of Saccharomyces cerevisiae 3053-E000 were monitored by absorbance measurements at 550 nm and by CPU counting on YPG gelose plates.
The concentrations tested for the addition of selenium selenite are 0.5 mg/L, 10 mg/L and 20 mg/L in selenium equivalent, i.e. respectively: 1.1 mg/L, 22.22 mg/L and 44.44 mg/L of sodium selenite.
The concentrations tested for the addition of selenomethionine are 0.5 mg/L, 2 mg/L, 10 mg/L and 20 mg/L in selenium equivalent, i.e. respectively 1.25 mg/L, 5 mg/L, 25 mg/L and 50 mg/L of selenomethionine
(§1) The concentrations tested for the addition of 2-hydroxy-4-methylseleno-butanoic acid are 0.5 mg/L, 2 mg/L, 10 mg/L and 20 mg/L in selenium equivalent, i.e. respectively 1.25 mg/L, 5 mg/L, 25 mg/L and 50 mg/L of 2-hydroxy-4-methylseleno-butanoic acid (THD-177, Tetrahedron, France, CAS: 873660-49-2).

[3] = system: Lactobacillus paracasei 3052-E000; assay type: cell-based; conditions: for inhibitor effect on the growth or reduction in the biomass production yield: up to 20 mg/L (in selenium equivalent); for reduction in the biomass production yield: 48 h
Protocol: In this experiment, the growth characteristics of the bacterium Lactobacillus paracasei were measured in the presence of different concentrations of selenium in the form of sodium selenite, selenomethionine, 2-hydroxy-4-methylseleno-butanoic acid and compared with the growth characteristics in the absence of additives.
The pre-culture of the strain Lactobacillus paracasei 3052-E000 is carried out in liquid MRS medium, at 42° C., without agitation for 24 h. The culture of the strain Lactobacillus paracasei 3052-E000 was carried out from an inoculum (1.10^7 UFC/ml) of the above pre-culture in 100 mL of MRS medium, at pH=6.4 and at a temperature of 42° C. (without agitation).
The cultures were monitored by absorbance measurements at 550 nm and CFU counting carried out on MRS plate.
The concentrations tested for the addition of selenium selenite are 0.5 mg/L, 2 mg/L, 10 mg/L and 20 mg/L in selenium equivalent, i.e. respectively 1.11 mg/L, 4.44 mg/L, 22.22 mg/L and 44.44 mg/L of sodium selenite. The graph of FIG. 4 makes it possible to visualise the growth of the strain Lactobacillus paracasei 3052-E000 in the presence of sodium selenite.
The concentrations tested for the addition of selenomethionine are 0.5 mg/L, 2 mg/L, 10 mg/L and 20 mg/L in selenium equivalent, i.e. respectively 1.25 mg/L, 5 mg/L, 25 mg/L and 50 mg/L of selenomethionine.
as §1
In order to complete the study of the impact of the addition of 2-hydroxy-4-methylseleno-butanoic acid, at higher values, concentrations of 40 and 60 mg/L were tested under the same conditions as previously.

[4] = 10 mg/L (in selenium equivalent)
[5] = 20 mg/L (in selenium equivalent)
[6] = 10 and 20 mg/L (in selenium equivalent)

C[Se]CC[C@H](N)C(=O)O [L(+)-selenomethionine]
toxicity compared with an intake in the form of sodium selenite [1]: much less toxic

C[Se]CCC(O)C(=O)O (stereo not shown) [THD 177, 2-hydroxy-4-methylseleno-butanoic acid]
viability reduced by [2, 4]: 36% | yield of biomass obtained (change) [2, 4]: −15% | biomass yield reduced by [2, 5]: 36% | viability reduced by [2, 5]: 50% | concentration from which an effect on growth / biomass yield begins to show [2]: 10 mg/L (in selenium equivalent) | inhibitor effect on the growth and the biomass yield ([3]; 40 and 60 mg/L): no inhibitor effect was observed | inhibitor effect on the growth or reduction in the biomass production yield [3]: does not show an inhibitor effect

C[Se]CC[C@H](N)C(=O)O [selenomethionine]
yield of biomass obtained (change) ([2]; 2 mg/L (in selenium equivalent)): −29% | yield of biomass obtained (change) [2, 4]: −50% | concentration from which an effect on growth / biomass yield begins to show [2]: 2 mg/L (in selenium equivalent) | inhibitor effect on the growth or reduction in the biomass production yield [3]: does not show an inhibitor effect

O=[Se](O)O [sodium selenite]
yield of biomass obtained (change) [2, 4]: −50% | toxicity for Saccharomyces cerevisiae [2, 5]: very toxic | concentration from which an effect on growth / biomass yield begins to show [2]: 10 mg/L (in selenium equivalent) | reduction in the biomass production yield ([3]; 0.5 mg/L (in selenium equivalent)): 25% | toxicity on Lactobacillus paracasei [3, 6]: shows a toxicity | reduction in the biomass production yield [3, 6]: 90% | concentration from which an inhibitor effect on growth begins to show ([3]; MRS medium, pH 6.4, 42° C.): 0.5 mg/L (in selenium equivalent)
